From patent US20040219106A1, “Compounds for use as surfactants” (priority 2001, published 2004)

Legend:
Assay type in all cases: physicochemical
[1] = Particle size of salmeterol xinafoate HFA 134a suspension by image analysis (Galai CIS-100)
Method: (§1) Salmeterol xinafoate formulations in HFA 134a (1,1,1,2-tetrafluoroethane), of strength 25 μg per actuation, and 10% w/w (relative to drug) of the surfactant compound of Example 1 (Bis(4,4,5,5,5-pentafluopentanoyl)phosphatidylcholine) were prepared using salmeterol xinafoate (5.8 mg), HFA 134a (12 g) and the relevant compound (0.58 mg). The control was prepared without the addition of a surfactant.
In this measurement, particle size is represented as the equivalent diameter of a circle of equal area to the object. The mean is the average of 4 determinations. The particle size measurement was obtained by transferring the suspensions to a presurised cell, and video-imaging the sample under shear via a microscope objective.
The equivalent diameter is defined as the diameter of a circle of equal area to the object. [formula]
The mean equivalent diameter can be weighted by number, length or volume. e.g. For three particles with equivalent diameters of x, y and z: [formula]

[2] = Andersen Cascade Impaction of salmeterol xinafoate HFA 134a formulation; conditions: for % FPM (FPM as percentage of total dose emitted ex-valve) / FPM (fine particle mass, sum of stages 3-5) / Total Dose Emitted (Ex-Actuator) / Total Dose Emitted (Ex-Valve): BoU, mean of 3 cans/inhalers
Method: as §1
The formulation, the preparation of which is described above, was profiled using an Andersen Cascade Impactor. Ten actuations at “beginning of use” (BoU) were collected in the impactor from an inhaler after 4 priming actuations were fired to waste. The drug delivered was then quantified by HPLC analysis. Testing was performed intially (following sample preparation) and then after inhalers had been stored at 40° C./75% RH for 8 weeks and for 3 months. The results, at each timepoint, in Table 2 are shown as the mean analysis of 3 cans/inhalers.
The profile obtained was used to determine total dose emitted dose (ex-valve and ex-actuator) and the fine particle mass (FPM, defined as the sum of stages 3-5). The percentage fine particle mass expresses the FPM as a percentage of the total dose emitted (ex-valve). The FPM is used as a measure of the proportion of the drug likely to reach the therapeutic target in the lungs.

[3] = Content uniformity by dose through use testing; conditions: for BuO dose: actuations 1+2, mean of 10 inhalers; for EuO dose: actuations 119+120, mean of 10 inhalers
Method: as §1
The content uniformity of the formulation, the preparation of which is described above, was assessed by dose through use testing. Testing was performed on 10 cans/inhalers at “beginning of use” (BoU) and “end of use” (EoU). After each inhaler had been primed (4 shots fired to waste), actuations 1 and 2 (BoU) were collected. The next 116 actuations of each inhaler were then fired to waste using an automated method and actuations 119 and 120 (EoU) collected.
Assesment of content uniformity was performed intially (following sample preparation) and then on a further 10 inhalers for each timepoint, 8 weeks and 3 months, which were stored at 40° C./75% RH. Mean results from the two BoU actuations (1+2 for 10 inhalers) and the two EoU actuations (119+120 for same 10 inhalers) at each timepoint together with the percentage relative standard deviation (% RSD) for the 10 cans are shown in Table 3.

[4] = in the presence of the surfactant

C[N+](C)(C)CCOP(=O)([O-])OC[C@@H](COC(=O)CCC(F)(F)C(F)(F)F)OC(=O)CCC(F)(F)C(F)(F)F [Example 1, Bis(4,4,5,5,5-pentafluopentanoyl)phosphatidylcholine]
change in average particle size (mean length weighted diameter) versus control ([1]; compound incorporated into the formulation): marked reduction
Mean Length weighted diameter ([1]; salmeterol xinafoate 25 μg per actuation in HFA 134a, 10% w/w surfactant relative to drug, average of 4 determinations): 13.3 μm
suspension stabilising properties (discouraging flocculation of drug particles) ([1]; salmeterol xinafoate in HFA 134a, 10% w/w surfactant): suspension stabilising properties
% FPM (FPM as percentage of total dose emitted ex-valve) ([2]; 3 month at 40° C./75% RH): 42.5%
FPM (fine particle mass, sum of stages 3-5) ([2]; 3 month at 40° C./75% RH): 10.4 µg
Total Dose Emitted (Ex-Actuator) ([2]; 3 month at 40° C./75% RH): 20.1 µg
Total Dose Emitted (Ex-Valve) ([2]; 3 month at 40° C./75% RH): 24.4 µg
% FPM (FPM as percentage of total dose emitted ex-valve) ([2]; 8 week at 40° C./75% RH): 44.2%
FPM (fine particle mass, sum of stages 3-5) ([2]; 8 week at 40° C./75% RH): 10.4 µg
Total Dose Emitted (Ex-Actuator) ([2]; 8 week at 40° C./75% RH): 19.5 µg
Total Dose Emitted (Ex-Valve) ([2]; 8 week at 40° C./75% RH): 23.5 µg
% FPM (FPM as percentage of total dose emitted ex-valve) ([2]; Initial): 47.7%
FPM (fine particle mass, sum of stages 3-5) ([2]; Initial): 11.1 µg
Total Dose Emitted (Ex-Actuator) ([2]; Initial): 20.0 µg
Total Dose Emitted (Ex-Valve) ([2]; Initial, 10% w/w surfactant): 23.3 µg
change in absolute FPM versus control [2, 4]: increase
change in absolute doses emitted versus control [2, 4]: increase
change in percentage FPM versus control [2, 4]: significant increase
BuO dose ([3]; 3 Month at 40° C./75% RH): 19.7 µg
EuO dose ([3]; 3 Month at 40° C./75% RH): 22.6 µg
BuO dose ([3]; 8 Week at 40° C./75% RH): 20.3 µg
EuO dose ([3]; 8 Week at 40° C./75% RH): 24.2 µg
change in percentage RSD at EoU versus control (can to can reproducibility) ([3]; 10 inhalers tested): reduction
BuO dose ([3]; Initial): 19.6 µg
EuO dose ([3]; Initial): 23.3 µg
